The text below walks through data of patent US20230416249A1, “N-[2-({4-[3-(ANILINO)-4-OXO-4,5,6,7-TETRAHYDRO-1H-PYRROLO[3,2-C]PYRIDIN-2-YL]PYRIDIN-3-YL)OXY)ETHYL]PROP-2-ENAMIDE DERIVATIVES AND SIMILAR COMPOUNDS AS EGFR INHIBITORS FOR THE TREATMENT OF CANCER” (Bayer Aktiengesellschaft, priority 2020, published 2023).

The target in one assay is Ba/F3-EGFR-WT cells (Homo sapiens, UniProt P00533). The assay can be described thus: Ba/F3 cell survival assay (Cell Titer-Glo), WT EGFR. It counts as cell-based. The settings on record: 48 h, without IL-3, 10 ng/mL EGF; read-out: BA/F3 (wild type) IC50. How it is done:
(§1) 293T cells from ATCC were transfected with pBABEpuro expression constructs for WT EGFR or EGFR-insSVD, or EGFR-insSVD T790M, and pCL-Eco packaging vector using Fugene-6 transfection reagent from Promega. Plates were incubated at 37° C. for 48 h. Retrovirus was harvested by filtering the media supernatant through a 0.45 μm filter.
(§2) Ba/F3 cells purchased from DSMZ were grown in RPMI+10% FBS+10 ng/mL IL-3 and infected with filtered retroviral supernatant at a 1:2 dilution. Polybrene was added to a concentration of 8 μg/mL, plates were spun for 90 min, and incubated for 16 h at 37° C. 2 μg/mL puromycin was added to the infected cells 24 h after infection and cells were continually grown in the presence of puromycin and 10 ng/mL IL-3. Following stably expressing Ba/F3 cell lines were generated: Ba/F3-EGFR-WT, Ba/F3-EGFR-insSVD, Ba/F3-EGFR-insSVD T790M, (Ba/F3—vector-control).
(§3) For cell survival assays, Ba/F3 cells were grown to a density of 1-2 million cells per mL, spun down and resuspended in media without IL-3, and replated at a concentration 200,000-500,000 cells per mL. The cells ectopically expressing WT EGFR, EGFR-insSVD, or EGFR-insSVD T790M were plated with 10 ng/mL Millipore Culture grade EGF. The cells ectopically expressing pBABEpuro empty vector were plated with 10 ng/mL IL-3.
(§4) 2 days later, cells were plated in 50 μL in a 384 well plate at a concentration of 4000 cells per well for cells assayed in the absence of IL-3 and 2000 cells per well for cells assayed in the presence of IL-3. 100 nL of compound was added to each well using a 100 nL pin head, and plates were incubated at 37° C. for 48 h.
(§5) Cell viability was measured by adding 20 μL of Cell Titer-Glo Luminescent Cell Viability Reagent diluted 1:3 in PBS. Plates were sealed with Perkin Elmer Top-Seal, inverted several times to mix, and immediately centrifuged at 1000 rpm for 2 min. Plates were incubated in low light conditions for 8-10 min and luminescence was measured.

For assay [1], the target named is Ba/F3-EGFR-E746_A750del T790M cells (Homo sapiens, UniProt P00533, DEL746-750/T790M, cells depend on it). The assay can be described thus: Ba/F3 cell survival assay (Cell Titer-Glo), EGFR-E746_A750del T790M. It counts as cell-based. The conditions noted are these: 48 h, without IL-3, 10 ng/mL EGF; read-out: BA/F3 (E746_A750del T790M) IC50. How it is done: (§6) 293T cells from ATCC were transfected with pBABEpuro expression constructs for EGFR-L858R, EGFR-E746_A750del, EGFR-L858R T790M, or EGFR-E746_A750del T790M, and pCL-Eco packaging vector using Fugene-6 transfection reagent from Promega. Plates were incubated at 37° C. for 48 h. Retrovirus was harvested by filtering the media supernatant through a 0.45 μm filter.
Ba/F3-EGFR-E746_A750del T790M cells, sequence (P00533 with tags, fused parts or gaps DEL746-750/T790M): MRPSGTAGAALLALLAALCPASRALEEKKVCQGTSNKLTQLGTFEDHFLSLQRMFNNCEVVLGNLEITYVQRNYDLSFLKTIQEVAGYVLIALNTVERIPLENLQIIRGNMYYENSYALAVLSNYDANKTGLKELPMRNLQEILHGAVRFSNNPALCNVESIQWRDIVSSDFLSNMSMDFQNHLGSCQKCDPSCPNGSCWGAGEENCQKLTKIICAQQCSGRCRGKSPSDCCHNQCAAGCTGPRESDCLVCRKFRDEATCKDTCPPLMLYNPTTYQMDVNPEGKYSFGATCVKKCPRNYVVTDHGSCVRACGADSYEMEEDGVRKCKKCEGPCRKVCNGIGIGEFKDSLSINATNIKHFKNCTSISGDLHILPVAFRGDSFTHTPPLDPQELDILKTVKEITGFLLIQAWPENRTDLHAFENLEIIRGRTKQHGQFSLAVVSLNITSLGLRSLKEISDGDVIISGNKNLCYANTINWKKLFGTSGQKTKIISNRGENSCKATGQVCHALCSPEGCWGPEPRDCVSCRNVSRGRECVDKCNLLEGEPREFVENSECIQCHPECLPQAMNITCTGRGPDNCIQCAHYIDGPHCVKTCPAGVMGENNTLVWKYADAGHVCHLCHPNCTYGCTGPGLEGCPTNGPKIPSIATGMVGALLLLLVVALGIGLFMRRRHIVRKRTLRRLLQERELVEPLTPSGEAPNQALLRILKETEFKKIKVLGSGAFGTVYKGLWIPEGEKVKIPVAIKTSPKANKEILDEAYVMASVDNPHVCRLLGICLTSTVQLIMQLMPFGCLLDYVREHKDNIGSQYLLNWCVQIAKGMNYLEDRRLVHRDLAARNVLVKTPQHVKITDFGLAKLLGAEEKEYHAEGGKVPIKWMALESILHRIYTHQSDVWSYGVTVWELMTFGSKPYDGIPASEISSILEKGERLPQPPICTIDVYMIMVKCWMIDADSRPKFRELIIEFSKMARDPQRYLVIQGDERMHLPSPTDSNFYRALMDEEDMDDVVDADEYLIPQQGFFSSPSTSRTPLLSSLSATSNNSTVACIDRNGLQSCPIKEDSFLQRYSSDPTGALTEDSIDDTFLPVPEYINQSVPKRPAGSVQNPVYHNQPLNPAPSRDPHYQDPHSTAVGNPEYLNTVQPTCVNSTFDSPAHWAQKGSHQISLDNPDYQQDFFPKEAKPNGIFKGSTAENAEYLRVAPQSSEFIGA
(§7) Ba/F3 cells purchased from DSMZ were grown in RPMI+10% FBS+10 ng/mL IL-3 and infected with filtered retroviral supernatant at a 1:2 dilution. Polybrene was added to a concentration of 8 μg/mL, plates were spun for 90 min, and incubated for 16 h at 37° C. 2 μg/mL puromycin was added to the infected cells 24 h after infection and cells were continually grown in the presence of puromycin and 10 ng/mL IL-3. Following stably expressing Ba/F3 cell lines were generated: Ba/F3-EGFR-L858R, Ba/F3-EGFR-E746_A750del, Ba/F3-EGFR-L858R T790M, or Ba/F3-EGFR-E746_A750del T790M.
(§8) For cell survival assays, Ba/F3 cells were grown to a density of 1-2 million cells per mL, spun down and resuspended in media without IL-3, and replated at a concentration 200,000-500,000 cells per mL. The cells ectopically expressing EGFR-L858R, EGFR-E746_A750del, EGFR-L858R T790M, or EGFR-E746_A750del T790M were plated with 10 ng/mL Millipore Culture grade EGF. The cells ectopically expressing pBABEpuro empty vector were plated with 10 ng/mL IL-3.
as §4, §5

Assay [2] deals with Ba/F3-EGFR-L858R T790M cells (Homo sapiens, UniProt P00533, T790M/L858R, cells depend on it). The assay can be described thus: Ba/F3 cell survival assay (Cell Titer-Glo), EGFR-L858R T790M. The format is cell-based. The conditions noted are these: 48 h, without IL-3, 10 ng/mL EGF; read-out: BA/F3 (L858R T790M) IC50. The method, then:
as §6, §7, §8, §4, §5

Assay [3] deals with T1, mutEGFR (D770_N771insSVD) (Homo sapiens, UniProt P00533, DUP768-770).
T1 construct: GST-EGFR #3 (SVD between D770 and N771); made in house; host or cells: Sf9 insect cells (baculovirus)
T1 sequence (P00533 with tags, fused parts or gaps DUP768-770): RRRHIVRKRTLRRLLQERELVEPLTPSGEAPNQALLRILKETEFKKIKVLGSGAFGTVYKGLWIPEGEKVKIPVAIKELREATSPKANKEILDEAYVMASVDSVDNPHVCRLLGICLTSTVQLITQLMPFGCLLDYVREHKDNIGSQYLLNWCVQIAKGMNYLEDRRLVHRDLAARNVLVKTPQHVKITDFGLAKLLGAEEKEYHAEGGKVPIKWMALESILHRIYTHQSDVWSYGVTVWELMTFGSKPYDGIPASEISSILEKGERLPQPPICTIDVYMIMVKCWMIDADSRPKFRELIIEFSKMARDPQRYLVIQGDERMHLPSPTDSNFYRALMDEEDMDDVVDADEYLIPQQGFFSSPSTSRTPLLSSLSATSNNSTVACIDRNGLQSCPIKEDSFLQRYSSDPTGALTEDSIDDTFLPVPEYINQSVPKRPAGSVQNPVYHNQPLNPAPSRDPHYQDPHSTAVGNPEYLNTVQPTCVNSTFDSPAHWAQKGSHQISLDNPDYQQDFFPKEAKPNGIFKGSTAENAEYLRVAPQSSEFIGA
The assay can be described thus: Exon20-Mutant-EGFR(D770_N771insSVD) kinase assay (TR-FRET). It counts as biochemical. The conditions noted are these: GST-EGFR ins SVD, 2 mM ATP, 15 min pre-incubation. From the text: Inhibitory activity of compounds of the present invention against an Epidermal Growth Factor Receptor (EGFR) with an insertion of the amino acids sequence SVD between D770 and N771 was quantified employing the TR-FRET based kinase activity assay as described in the following paragraphs.
A recombinant fusion protein of N-terminal Glutathion-S-Transferase (GST) and a fragment of human EGFR variant (amino acids R669 to A1210 with insertion of the amino acids sequence SVD between D770 and N771 (“EGFR ins SVD”), expressed in Sf9 insect cells and purified via affinity chromatography using Glutathion Sepharose as described above, was used as a kinase. As substrate for the kinase reaction the biotinylated peptide biotin-Ahx-AEEEEYFELVAKKK (SEQ ID NO: 6) (C-terminus in amide form) was used which can be purchased e.g. form the company Biosynthan GmbH (Berlin-Buch, Germany).
For the assay 50 nl of a 100-fold concentrated solution of the test compound in DMSO was pipetted into either a black low volume 384 well microtiter plate or a black 1536 well microtiter plate (both Greiner Bio-One, Frickenhausen, Germany), 2 μl of a solution of EGFR in aqueous assay buffer [50 mM Hepes pH 7.0, 10 mM MgCl2, 1 mM dithiothreitol, 0.5 mM EGTA, 0.3 mM activated sodium ortho-vanadate, 0.005% (w/v) bovine serum albumin, 0.005% (v/v) Tween-20] were added and the mixture was incubated for 15 min at 22° C. to allow pre binding of the test compounds to the enzyme before the start of the kinase reaction. Then the kinase reaction was started by the addition of 3 μL of a solution of adenosine tri phosphate (ATP, 3.33 mM=>final conc. in the 5 μL assay volume is 2 mM) and substrate (1.67 μM=>final conc. in the 5 μL assay volume is 1 μM) in assay buffer and the resulting mixture was incubated for a reaction time of 30 min at 22° C. The concentration of EGFR was adjusted depending of the activity of the enzyme lot and was chosen appropriate to have the assay in the linear range, typical concentration was 15 pg/μl. The reaction was stopped by the addition of 3 μl of a solution of HTRF detection reagents (83.3 nM streptavidine-XL665 [Cisbio Bioassays, Codolet, France] and 1.67 nM PT66-Tb-Cryptate, a terbium-cryptate labelled anti-phospho-tyrosine antibody from Cisbio Bioassays [instead of the PT66 Tb cryptate PT66 Eu Chelate from Perkin Elmer can also be used]) in an aqueous EDTA-solution (133.3 mM EDTA, 0.2% (w/v) bovine serum albumin in 50 mM HEPES pH 7.5).
The resulting mixture was incubated 1 h at 22° C. to allow the binding of the biotinylated phosphorylated peptide to the streptavidine-XL665 and the PT66-Tb-Cryptate. Subsequently the amount of phosphorylated substrate was evaluated by measurement of the resonance energy transfer from the PT66-Tb-Cryptate to the streptavidine-XL665. Therefore, the fluorescence emissions at 620 nm and 665 nm after excitation at 337 nm were measured in a HTRF reader, e.g. a Pherastar (BMG Labtechnologies, Offenburg, Germany) or a Viewlux (Perkin-Elmer). The ratio of the emissions at 665 nm and at […] was taken as the measure for the amount of phosphorylated substrate. The data were normalised (enzyme reaction without inhibitor=0% inhibition, all other assay components but no enzyme=100% inhibition).

Another assay deals with Ba/F3-EGFR-insSVD cells (Homo sapiens, UniProt P00533, DUP768-770, cells depend on it). Briefly: Ba/F3 cell survival assay (Cell Titer-Glo), EGFR-insSVD. The settings on record: 48 h, without IL-3, 10 ng/mL EGF; read-out: BA/F3 (insSVD) IC50. The format is cell-based. How it is done: as §1, §2, §3, §4, §5

Where “and” joins values, the source holds several entries; their conditions need not be identical. Identical values can stand only once.

Ba/F3-EGFR-L858R T790M cells, sequence (P00533 whole entry T790M/L858R): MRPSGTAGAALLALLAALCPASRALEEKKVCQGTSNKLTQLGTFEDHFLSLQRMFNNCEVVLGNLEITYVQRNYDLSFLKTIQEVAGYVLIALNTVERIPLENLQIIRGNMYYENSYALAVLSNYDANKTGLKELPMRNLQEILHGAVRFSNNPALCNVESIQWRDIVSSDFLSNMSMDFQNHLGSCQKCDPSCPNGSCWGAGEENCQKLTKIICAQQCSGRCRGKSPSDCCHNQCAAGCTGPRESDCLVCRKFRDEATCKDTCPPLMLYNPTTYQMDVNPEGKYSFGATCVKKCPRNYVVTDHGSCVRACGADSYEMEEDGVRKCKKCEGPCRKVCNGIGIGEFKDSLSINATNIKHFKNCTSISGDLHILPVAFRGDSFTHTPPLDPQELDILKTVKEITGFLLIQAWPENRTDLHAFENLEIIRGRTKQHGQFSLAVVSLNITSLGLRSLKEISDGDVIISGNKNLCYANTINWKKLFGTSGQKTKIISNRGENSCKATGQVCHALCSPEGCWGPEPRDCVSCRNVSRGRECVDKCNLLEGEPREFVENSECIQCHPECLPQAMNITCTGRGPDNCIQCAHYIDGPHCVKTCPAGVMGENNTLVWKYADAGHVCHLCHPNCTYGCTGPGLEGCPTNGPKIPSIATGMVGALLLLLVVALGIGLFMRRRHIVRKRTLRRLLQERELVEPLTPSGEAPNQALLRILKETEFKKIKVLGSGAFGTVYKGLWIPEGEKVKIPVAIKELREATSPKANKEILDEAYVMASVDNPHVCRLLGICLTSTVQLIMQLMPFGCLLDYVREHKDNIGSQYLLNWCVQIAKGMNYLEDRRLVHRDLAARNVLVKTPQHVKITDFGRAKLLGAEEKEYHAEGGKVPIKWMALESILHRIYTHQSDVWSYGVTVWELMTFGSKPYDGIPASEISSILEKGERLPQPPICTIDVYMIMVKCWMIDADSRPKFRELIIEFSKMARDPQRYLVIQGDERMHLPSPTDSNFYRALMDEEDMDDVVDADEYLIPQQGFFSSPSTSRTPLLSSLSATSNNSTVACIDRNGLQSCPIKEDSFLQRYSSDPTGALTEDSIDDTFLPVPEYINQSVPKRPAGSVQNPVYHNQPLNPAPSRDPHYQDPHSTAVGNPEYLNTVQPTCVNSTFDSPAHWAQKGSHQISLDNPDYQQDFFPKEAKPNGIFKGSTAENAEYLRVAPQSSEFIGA
Ba/F3-EGFR-WT cells, sequence (P00533 whole entry, stated change not applied): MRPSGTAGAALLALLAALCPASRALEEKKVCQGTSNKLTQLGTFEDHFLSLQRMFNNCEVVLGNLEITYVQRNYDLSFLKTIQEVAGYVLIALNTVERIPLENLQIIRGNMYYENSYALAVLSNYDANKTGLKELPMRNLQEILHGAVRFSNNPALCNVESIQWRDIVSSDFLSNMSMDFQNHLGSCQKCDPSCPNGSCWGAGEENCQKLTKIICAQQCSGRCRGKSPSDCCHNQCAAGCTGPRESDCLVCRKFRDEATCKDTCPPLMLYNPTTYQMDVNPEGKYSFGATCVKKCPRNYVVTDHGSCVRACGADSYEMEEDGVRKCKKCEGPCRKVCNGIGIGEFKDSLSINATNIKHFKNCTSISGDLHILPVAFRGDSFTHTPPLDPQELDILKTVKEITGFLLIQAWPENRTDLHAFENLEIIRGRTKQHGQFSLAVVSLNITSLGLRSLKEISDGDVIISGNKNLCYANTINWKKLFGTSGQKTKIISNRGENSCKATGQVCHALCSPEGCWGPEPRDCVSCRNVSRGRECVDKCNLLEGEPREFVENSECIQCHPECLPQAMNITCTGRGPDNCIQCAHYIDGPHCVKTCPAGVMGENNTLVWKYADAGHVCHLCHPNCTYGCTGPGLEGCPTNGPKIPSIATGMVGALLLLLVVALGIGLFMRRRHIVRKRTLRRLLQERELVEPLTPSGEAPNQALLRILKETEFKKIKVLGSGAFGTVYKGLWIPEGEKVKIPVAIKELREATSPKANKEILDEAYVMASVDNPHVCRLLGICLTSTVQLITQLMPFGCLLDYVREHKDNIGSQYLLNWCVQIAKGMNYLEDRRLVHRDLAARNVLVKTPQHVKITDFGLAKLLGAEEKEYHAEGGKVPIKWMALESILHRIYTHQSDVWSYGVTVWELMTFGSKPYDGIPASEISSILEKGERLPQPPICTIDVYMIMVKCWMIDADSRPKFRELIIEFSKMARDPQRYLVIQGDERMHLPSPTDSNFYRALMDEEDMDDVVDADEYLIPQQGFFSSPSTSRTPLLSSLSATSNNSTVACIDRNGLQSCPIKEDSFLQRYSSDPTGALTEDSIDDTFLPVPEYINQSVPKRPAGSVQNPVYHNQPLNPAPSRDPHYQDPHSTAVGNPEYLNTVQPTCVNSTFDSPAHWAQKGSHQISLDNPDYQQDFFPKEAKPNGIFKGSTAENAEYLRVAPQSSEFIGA

As for `C=CC(=O)NCCOc1cnccc1-c1[nH]c2c(c1Nc1cccc(Cl)c1C)C(=O)NCC2` [Example 3, N-[2-({4-[3-(3-chloro-2-methylanilino)-4-oxo-4,5,6,7-tetrahydro-1H-pyrrolo[3,2-c]pyridin-2-yl]pyridin-3-yl}oxy)ethyl]prop-2-enamide], the GI50 was 566 nM at Ba/F3-EGFR-WT cells, 32.6 nM in assay [1], 201 nM in assay [2] and 40.2 nM on Ba/F3-EGFR-insSVD cells. Moreover, the IC50 in assay [3] is 0.265 nM.
Regarding `C=CC(=O)NCCOc1cnccc1-c1[nH]c2c(c1Nc1cccc(Cl)c1OC)C(=O)NCC2` [Example 1, N-[2-({4-[3-(3-chloro-2-methoxyanilino)-4-oxo-4,5,6,7-tetrahydro-1H-pyrrolo[3,2-c]pyridin-2-yl]pyridin-3-yl}oxy)ethyl]prop-2-enamide], the GI50 is 3030 nM on Ba/F3-EGFR-WT cells, more than 1000 nM in assay [1], more than 1000 nM in assay [2] and 376 nM on Ba/F3-EGFR-insSVD cells. The same molecule had an IC50 in assay [3] of 0.155 nM.
For `C=CC(=O)N(C)CCOc1cnccc1-c1[nH]c2c(c1Nc1cccc(F)c1OC)C(=O)NCC2` [Example 6, N-[2-({4-[3-(3-fluoro-2-methoxyanilino)-4-oxo-4,5,6,7-tetrahydro-1H-pyrrolo[3,2-c]pyridin-2-yl]pyridin-3-yl}oxy)ethyl]-N-methylprop-2-enamide], the GI50 at Ba/F3-EGFR-WT cells came out at 109 nM; in assay [1], 4.96 nM; in assay [2], 26.4 nM; on Ba/F3-EGFR-insSVD cells, 8.94 nM. This molecule also came in with an IC50 in assay [3] of 0.171 nM.
Regarding `C=CC(=O)N(C)CCOc1cnccc1-c1[nH]c2c(c1Nc1ccc(F)cc1)C(=O)NCC2` [Example 7, N-[2-({4-[3-(4-fluoroanilino)-4-oxo-4,5,6,7-tetrahydro-1H-pyrrolo[3,2-c]pyridin-2-yl]pyridin-3-yl}oxy)ethyl]-N-methylprop-2-enamide], the GI50 amounted to 366 nM at Ba/F3-EGFR-WT cells, 21.9 nM in assay [1], 274 nM in assay [2] and 146 nM on Ba/F3-EGFR-insSVD cells. Moreover, in assay [3], the IC50 was 1.62 nM.
For `COc1c(Cl)cccc1Nc1c(-c2ccncc2OCCN(C)C(=O)/C=C/CN(C)C)[nH]c2c1C(=O)NCC2` [Example 9, (2E)-N-[2-({4-[3-(3-chloro-2-methoxyanilino)-4-oxo-4,5,6,7-tetrahydro-1H-pyrrolo[3,2-c]pyridin-2-yl]pyridin-3-yl}oxy)ethyl]-4-(dimethylamino)-N-methylbut-2-enamide], the GI50 is 4520 nM at Ba/F3-EGFR-WT cells; 183 nM in assay [1]; 731 nM and > 1000 nM in assay [2]; 263 nM at Ba/F3-EGFR-insSVD cells. In addition, the IC50 in assay [3] stood at 2.48 nM.
For `C=CC(=O)NCCCOc1cnccc1-c1[nH]c2c(c1Nc1cccc(Cl)c1OC)C(=O)NCC2` [Example 4, N-[3-({4-[3-(3-chloro-2-methoxyanilino)-4-oxo-4,5,6,7-tetrahydro-1H-pyrrolo[3,2-c]pyridin-2-yl]pyridin-3-yl}oxy)propyl]prop-2-enamide], the GI50 was 4420 nM on Ba/F3-EGFR-WT cells, more than 1000 nM in assay [1], more than 1000 nM in assay [2] and 519 nM at Ba/F3-EGFR-insSVD cells. Moreover, half-maximal inhibition in assay [3] (IC50) was put at 0.305 nM.
With `C=CC(=O)NCCOc1cnccc1-c1[nH]c2c(c1Nc1cccc(F)c1C)C(=O)NCC2` [Example 2, N-[2-({4-[3-(3-fluoro-2-methylanilino)-4-oxo-4,5,6,7-tetrahydro-1H-pyrrolo[3,2-c]pyridin-2-yl]pyridin-3-yl}oxy)ethyl]prop-2-enamide], the GI50 on Ba/F3-EGFR-WT cells stood at 907 nM; in assay [1] it was 25.2 nM; in assay [2] it was 215 nM; at Ba/F3-EGFR-insSVD cells, 57.9 nM. In assay [3], this molecule came in with an IC50 of 0.386 nM.
For `C=CC(=O)N1CCC[C@H]1COc1cnccc1-c1[nH]c2c(c1Nc1cccc(Cl)c1OC)C(=O)NCC2` [Example 13, 3-(3-chloro-2-methoxyanilino)-2-(3-{[(2S)-1-(prop-2-enoyl)pyrrolidin-2-yl]methoxy}pyridin-4-yl)-1,5,6,7-tetrahydro-4H-pyrrolo[3,2-c]pyridin-4-one], the GI50 was 51.2 nM at Ba/F3-EGFR-WT cells and 6.69 nM on Ba/F3-EGFR-insSVD cells. The molecule also registered an IC50 in assay [3] of 0.206 nM.
